Assays:
A1 adenosine receptor = target: T1, A1 adenosine receptor (Cavia porcellus, UniProt P47745); parameters: a Langendorff guinea pig heart preparation; from tissue; host or cells: isolated perfused guinea pig heart (Langendorff); conditions: heart paced at 260 beats/min; data of U.S. Pat. No. 5,278,150; read-out: EC50—SQPR (A1); cited from earlier work
T1 sequence (P47745 1-326): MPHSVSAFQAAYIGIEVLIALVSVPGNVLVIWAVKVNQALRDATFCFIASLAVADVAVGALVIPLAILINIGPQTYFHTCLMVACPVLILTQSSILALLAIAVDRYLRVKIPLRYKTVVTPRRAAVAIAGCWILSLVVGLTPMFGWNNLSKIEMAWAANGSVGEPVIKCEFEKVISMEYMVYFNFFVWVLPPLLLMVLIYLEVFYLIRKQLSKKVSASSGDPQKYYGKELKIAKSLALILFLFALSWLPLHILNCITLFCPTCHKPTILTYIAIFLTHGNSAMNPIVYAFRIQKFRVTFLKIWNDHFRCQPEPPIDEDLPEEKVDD

A2A adenosine receptor [1] = target: T2, A2A adenosine receptor (Cavia porcellus, UniProt P46616); parameters: a Langendorff guinea pig heart preparation; from tissue; host or cells: isolated perfused guinea pig heart (Langendorff), coronary vasculature; conditions: heart paced at 260 beats/min; data of U.S. Pat. No. 5,278,150; read-out: EC50—CF (A2A); cited from earlier work
T2 sequence (P46616 whole entry, the tested form may be a part): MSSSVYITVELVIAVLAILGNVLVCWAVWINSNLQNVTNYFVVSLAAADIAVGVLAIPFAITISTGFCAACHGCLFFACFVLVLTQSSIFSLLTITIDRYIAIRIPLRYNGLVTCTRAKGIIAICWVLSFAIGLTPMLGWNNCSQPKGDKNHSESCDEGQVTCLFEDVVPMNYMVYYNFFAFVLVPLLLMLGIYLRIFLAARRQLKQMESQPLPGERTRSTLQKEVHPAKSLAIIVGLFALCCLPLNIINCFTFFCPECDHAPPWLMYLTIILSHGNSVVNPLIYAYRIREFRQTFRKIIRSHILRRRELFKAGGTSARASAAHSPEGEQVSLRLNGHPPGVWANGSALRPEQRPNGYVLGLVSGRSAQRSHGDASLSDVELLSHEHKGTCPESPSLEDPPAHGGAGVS

A2A adenosine receptor [2] = target: T2, A2A adenosine receptor; experiment: Langendorff guinea pig heart preparation, coronary vasodilation (coronary flow); conditions: quotient EC50-SQPR / EC50-CF
Experimental: The A1/A2A selectivity in Table 1 was calculated as the quotient of the EC50 of stimulus-QRS prolongation divided by the EC50 of coronary vasodilation.

[3] = Dose-selection study of coronary hyperemia (CBFV by Doppler guide wire) in non-asthmatic patients at cardiac catheterization; conditions: intracoronary bolus injections before binodenoson
Experimental: Coronary blood flow velocity reserve (CBFVR) was established by intracoronary (IC) bolus injections of adenosine just prior to administration of binodenoson to allow a direct comparison of the magnitude of responses.
Patients presenting for cardiac catheterization were screened for eligibility and provided informed consent prior to sedation. Final eligibility was determined by the investigator during diagnostic catheterization.
Following completion of the diagnostic catheterization procedure and confirmation of all eligibility criteria, the Doppler guide wire was introduced into an accessible coronary artery and manipulated until a stable signal was obtained.
Drug administration: All usual catheterization procedural medications including IC nitroglycerin, heparin, anxiolytics and analgesics, were allowed. […] Binodenoson doses were then introduced into a peripheral vein via an indwelling catheter.
Measurements: Coronary blood flow velocity (CBFV) was measured as continuous pulsatile (systolic and diastolic) velocity (cm/sec) with the Doppler guide wire introduced via a guiding catheter. HR was derived from the ECG signal. SBP and diastolic blood pressure (DBP) were recorded directly from the catheter sheath. For each IC adenosine injection, CBFVR was calculated by dividing the peak post-injection CBFV value by the respective baseline CBFV value. Each patient's maximal calculated CBFVR was used as a benchmark to which CBFV responses to binodenoson were compared. For each binodenoson dose, baseline CBFV (post-IC adenosine), peak CBFV, time following dose start time to achieve peak CBFV and percents of CBFVR (calculated as the ratio of CBFV change from baseline following binodenoson administration vs CBFVR) at each point were calculated. Rate pressure product (RPP) and coronary vascular resistance (CVR) were derived at each time point (see formulas in Table 10). […] Vital signs were measured again approximately 3 to 4 hours after dosing or prior to hospital discharge. Patients returned for a follow-up visit 2 to 4 days following catheterization that included vital signs, an abbreviated physical examination, a 12-lead ECG, blood chemistry and hematology assessments and an assessment of any late-emerging adverse events.
Adverse events were monitored throughout the study.
Statistical analyses: All pharmacodynamic and safety data were analyzed using the intent-to-treat (ITT) population, which included all patients who received any amount of study drug. A paired t test was used to assess the significance of within-treatment differences (peak vs baseline) in CBFV, vital signs and calculated CVR and RPP; repeated comparisons were corrected using the Bonferroni-Holm method. The statistical significance of differences among treatment groups was evaluated using an analysis of variance (ANOVA) model that included treatment and investigator interactions.

A1/A2A Selectivity (A2A adenosine receptor [2]) | SMILES | EC50 (A1 adenosine receptor) [µM] | EC50 (A2A adenosine receptor [1]) [µM] | other results
 | Nc1nc(N/N=C/C2CC=CCC2)nc2c1ncn2[C@@H]1O[C@H](CO)[C@@H](O)[C@H]1O (stereo in doubt) [B, 2-{2-[(Cyclohex-3-enyl)methylene]hydrazino}adenosine] | 13.8 |  | 
36,300 | Nc1nc(N/N=C/c2ccccc2)nc2c1ncn2[C@@H]1O[C@H](CO)[C@@H](O)[C@H]1O (stereo in doubt) [I, 2-[2-(Benzylidene) hydrazino]adenosine] | 83.2 | 0.00229 | 
44,700 | CC(C)CCC=NNc1nc(N)c2ncn([C@@H]3O[C@H](CO)[C@@H](O)[C@H]3O)c2n1 [C, 2-[2-(4-methylpentylidene)hydrazino]adenosine] |  |  | 
 | Nc1ncnc2c1ncn2[C@@H]1O[C@H](CO)[C@@H](O)[C@H]1O [Compare A, Adenosine, reference compound] |  |  | effect on CBFV [3]: transient increases; effects on SBP, DBP, or HR [3]: no consistent effects
50 | Nc1nc(N)c2ncn([C@@H]3O[C@H](CO)[C@@H](O)[C@H]3O)c2n1 [Compare B, 2-Amino-adenosine, reference compound] |  | 0.22 | 
250 | NNc1nc(N)c2ncn([C@@H]3O[C@H](CO)[C@@H](O)[C@H]3O)c2n1 [Compare C, 2-Hydrazino-adenosine, reference compound] |  |  | 
 | CCCCC(CC)CC=NNc1nc(N)c2ncn([C@@H]3O[C@H](CO)[C@@H](O)[C@H]3O)c2n1 (some centres unmarked) [D, 2-[2-(3-ethylheptylidene)hydrazino]adenosine] | 9.77 |  | 
38,000 | CCCCCC=NNc1nc(N)c2ncn([C@@H]3O[C@H](CO)[C@@H](O)[C@H]3O)c2n1 [E, 2-[2-(hexylidene)hydrazino]adenosine] |  |  | 
37,200 | CCCC(CCC)CCC=NNc1nc(N)c2ncn([C@@H]3O[C@H](CO)[C@@H](O)[C@H]3O)c2n1 [G, 2-[2-(4-propylheptylidene)hydrazino]adenosine] | 66.1 | 0.00178 | 
5,100 | Nc1nc(NN=Cc2ccc(F)cc2)nc2c1ncn2[C@@H]1O[C@H](CO)[C@@H](O)[C@H]1O [J, 2-[2-(4-Fluorobenzylidene) hydrazino]adenosine] |  |  | 
 | Cc1ccc(C=NNc2nc(N)c3ncn(C4OC(CO)C(O)C4O)c3n2)cc1 (centres unmarked) [K, 2-[2-(4-Methylbenzylidine) hydrazino]adenosine] | 39.8 |  | 
3,800 | Cc1cccc(C=NNc2nc(N)c3ncn(C4OC(CO)C(O)C4O)c3n2)c1 (centres unmarked) [L, 2-[2-(3-Methylbenzylidine)hydrazino]adenosine] | 17 | 0.0044 | 

Source: patent US20110002843A1, “METHOD OF DETECTING MYOCARDIAL DYSFUNCTION IN PATIENTS HAVING A HISTORY OF ASTHMA OR BRONCHOSPASM” (priority 2005, published 2011)
